In patent publication US7396837B2, “Antitumoral analogs of lamellarins” (Pharma Mar, S.A.U., priority 2002, dated 2008):
Where two headings read alike, the source gives them in different places.

Experiments:
K-562 = assay: SRB colorimetric cell growth inhibition assay, K-562; format: cell-based; conditions: Homo sapiens, K562, K-562; for GI50: GI=growth inhibition, read-out: GI50 K-562; for CC50: cell killing (cytotoxic effect), read-out: LC50 K-562; for IC (TGI): total growth inhibition (cytostatic effect), read-out: TGI K-562
Procedure, shortened: (§1)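 Human tumour cells continuously exposed to compound in 96-well culture; growth and viability quantified colorimetrically by sulforhodamine B staining. Mean ± SD from triplicate wells; GI (growth inhibition), TGI (total growth inhibition, cytostatic) and LC (cell killing, cytotoxic) parameters derived.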

A-549 = assay: SRB colorimetric cell growth inhibition assay, A-549; format: cell-based; conditions: Homo sapiens, A549, A-549; for GI50: GI=growth inhibition, read-out: GI50 A-549; for CC50: cell killing (cytotoxic effect), read-out: LC50 A-549; for IC (TGI): total growth inhibition (cytostatic effect), read-out: TGI A-549
Procedure, shortened: as §1

SK-MEL-28 = assay: SRB colorimetric cell growth inhibition assay, SK-MEL-28; format: cell-based; conditions: Homo sapiens, SK-MEL-28, MEL-28; for GI50: GI=growth inhibition, read-out: GI50 MEL-28; for CC50: read-out: LC50 MEL-28; for IC (TGI): read-out: TGI MEL-28
Procedure, shortened: as §1

HT-29 = assay: SRB colorimetric cell growth inhibition assay, HT-29; format: cell-based; conditions: Homo sapiens, HT-29, HT-29; for GI50: GI=growth inhibition, read-out: GI50 HT-29; for CC50: cell killing (cytotoxic effect), read-out: LC50 HT-29; for IC (TGI): total growth inhibition (cytostatic effect), read-out: TGI HT-29
Procedure, shortened: as §1

LoVo = assay: SRB colorimetric cell growth inhibition assay, LoVo; format: cell-based; conditions: Homo sapiens, LoVo; for GI50: GI=growth inhibition, read-out: GI50 LOVO; for CC50: cell killing (cytotoxic effect), read-out: LC50 LOVO; for IC (TGI): total growth inhibition (cytostatic effect), read-out: TGI LOVO
Procedure, shortened: as §1

LoVo-Dox = assay: SRB colorimetric cell growth inhibition assay, LoVo-Dox (MDR); format: cell-based; conditions: Homo sapiens, LOVO-DOX; for GI50: GI=growth inhibition, read-out: GI50 LOVO-DOX; for CC50: cell killing (cytotoxic effect), read-out: LC50 LOVO-DOX; for IC (TGI): total growth inhibition (cytostatic effect), read-out: TGI LOVO-DOX
Procedure, shortened: as §1

DU-145 = assay: SRB colorimetric cell growth inhibition assay, DU-145; format: cell-based; conditions: Homo sapiens, DU-145, DU-145; for GI50: GI=growth inhibition, read-out: GI50 DU-145; for CC50: read-out: LC50 DU-145; for IC (TGI): read-out: TGI DU-145
Procedure, shortened: as §1

LNCaP = assay: SRB colorimetric cell growth inhibition assay, LNCaP; format: cell-based; conditions: Homo sapiens, LNCaP, LN-caP; for GI50: GI=growth inhibition, read-out: GI50 LN-caP; for CC50: read-out: LC50 LN-caP; for IC (TGI): read-out: TGI LN-caP
Procedure, shortened: as §1

SK-BR-3 = assay: SRB colorimetric cell growth inhibition assay, SK-BR-3; format: cell-based; conditions: Homo sapiens, SK-BR-3, SK-BR-3; for GI50: GI=growth inhibition, read-out: GI50 SK-BR-3; for CC50: read-out: LC50 SK-BR-3; for IC (TGI): read-out: TGI SK-BR-3
Procedure, shortened: as §1

IGROV = assay: SRB colorimetric cell growth inhibition assay, IGROV; format: cell-based; conditions: Homo sapiens, IGROV; for GI50: GI=growth inhibition, read-out: GI50 IGROV; for CC50: read-out: LC50 IGROV; for IC (TGI): read-out: TGI IGROV
Procedure, shortened: as §1

IGROV-ET = assay: SRB colorimetric cell growth inhibition assay, IGROV-ET (ET-743 resistant); format: cell-based; conditions: Homo sapiens, IGROV-ET; for GI50: GI=growth inhibition, read-out: GI50 IGROV-ET; for CC50: read-out: LC50 IGROV-ET; for IC (TGI): read-out: TGI IGROV-ET
Procedure, shortened: as §1

PANC-1 = assay: SRB colorimetric cell growth inhibition assay, PANC-1; format: cell-based; conditions: Homo sapiens, PANC-1, PANC-1; for GI50: GI=growth inhibition, read-out: GI50 PANC-1; for CC50: cell killing (cytotoxic effect), read-out: LC50 PANC-1; for IC (TGI): total growth inhibition (cytostatic effect), read-out: TGI PANC-1
Procedure, shortened: as §1

human topoisomerase I = target: T1, human topoisomerase I (Homo sapiens, UniProt P11387); assay: Topoisomerase I DNA relaxation assay (supercoiled plasmid DNA); format: biochemical; conditions: for stimulation of DNA cleavage by topoisomerase I / inhibition of topoisomerase I (nicked DNA band) in DNA relaxation assay: supercoiled plasmid DNA, each compound tested at 1 μM, agarose gel with ethidium bromide
T1 sequence (P11387 1-765): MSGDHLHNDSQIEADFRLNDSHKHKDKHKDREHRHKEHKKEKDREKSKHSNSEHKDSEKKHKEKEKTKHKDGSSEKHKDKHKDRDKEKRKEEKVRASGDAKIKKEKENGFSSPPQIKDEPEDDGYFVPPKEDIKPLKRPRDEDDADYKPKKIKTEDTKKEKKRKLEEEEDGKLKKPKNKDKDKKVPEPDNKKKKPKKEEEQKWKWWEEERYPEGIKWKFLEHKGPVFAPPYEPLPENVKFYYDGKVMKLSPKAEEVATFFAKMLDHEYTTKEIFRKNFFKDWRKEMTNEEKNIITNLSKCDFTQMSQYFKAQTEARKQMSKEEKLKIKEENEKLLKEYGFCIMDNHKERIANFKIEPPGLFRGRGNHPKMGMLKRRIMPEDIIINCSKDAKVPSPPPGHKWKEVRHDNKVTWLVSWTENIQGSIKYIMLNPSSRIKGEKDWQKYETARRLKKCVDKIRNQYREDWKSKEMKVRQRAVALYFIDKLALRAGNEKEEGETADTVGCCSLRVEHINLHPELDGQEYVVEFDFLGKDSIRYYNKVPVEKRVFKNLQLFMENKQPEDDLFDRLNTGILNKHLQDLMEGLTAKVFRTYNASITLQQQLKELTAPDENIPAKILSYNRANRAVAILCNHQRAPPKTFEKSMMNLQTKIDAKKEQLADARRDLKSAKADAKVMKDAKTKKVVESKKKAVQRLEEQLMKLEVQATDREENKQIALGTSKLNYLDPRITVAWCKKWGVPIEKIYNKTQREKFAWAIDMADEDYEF
Procedure, shortened: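 Supercoiled plasmid DNA was relaxed by human topoisomerase I with or without test compound at 1 μM. Products were resolved by agarose gel electrophoresis with ethidium bromide staining.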

[1] = LC=cell killing (cytotoxic effect)
[2] = TGI=total growth inhibition (cytostatic effect)
[3] = cell killing (cytotoxic effect)
[4] = total growth inhibition (cytostatic effect)

| Compound | GI50 (K-562) [µM] | CC50 (K-562) [µM] | IC (TGI) (K-562) [µM] | GI50 (A-549) [µM] | CC50 (A-549) [µM] | IC (TGI) (A-549) [µM] | GI50 (SK-MEL-28) [µM] | GI50 (HT-29) [µM] | CC50 (HT-29) [µM] | IC (TGI) (HT-29) [µM] | GI50 (LoVo) [µM] | CC50 (LoVo) [µM] | IC (TGI) (LoVo) [µM] | GI50 (LoVo-Dox) [µM] | CC50 (LoVo-Dox) [µM] | IC (TGI) (LoVo-Dox) [µM] | GI50 (DU-145) [µM] | GI50 (LNCaP) [µM] | GI50 (SK-BR-3) [µM] | GI50 (IGROV) [µM] | also measured |
| --- | --- | --- | --- | --- | --- | --- | --- | --- | --- | --- | --- | --- | --- | --- | --- | --- | --- | --- | --- | --- | --- |
| COc1cc(-c2c3n(c4c(=O)oc5cc(O)c(OC)cc5c24)CCc2cc(O)c(OC)cc2-3)ccc1O [Compound 109] | 0.425 | 19.9 | 19.9 | 5.94 | 19.9 | 14.1 | 0.885 | 4.81 | 19.9 | 19.9 | 0.917 | 19.9 | 4.07 | 5.64 | 19.9 | 13.5 | 2.99 | 1.16 | 3.45 | 1.8 | CC50 (SK-MEL-28; [1]): 10.8 µM; IC (TGI) (SK-MEL-28; [2]): 2.57 µM; CC50 (DU-145; [1]): 19.9 µM; IC (TGI) (DU-145; [2]): 15.4 µM; CC50 (LNCaP; [1]): 19.9 µM; IC (TGI) (LNCaP; [2]): 1.99 µM; CC50 (SK-BR-3; [1]): 19 µM; IC (TGI) (SK-BR-3; [2]): 8.1 µM; CC50 (IGROV; [1]): 19.9 µM; IC (TGI) (IGROV; [2]): 6.08 µM; GI50 (IGROV-ET): 9.67 µM; CC50 (IGROV-ET; [1]): 19.9 µM; IC (TGI) (IGROV-ET; [2]): 19.9 µM; GI50 (PANC-1): 5.7 µM; CC50 (PANC-1): 19.9 µM; IC (TGI) (PANC-1): 19.9 µM; stimulation of DNA cleavage by topoisomerase I / inhibition of topoisomerase I (nicked DNA band) in DNA relaxation assay (human topoisomerase I): inactive |
| COc1cc(-c2c3c4cc(OC)c(OC(=O)CCCCCN)cc4oc(=O)c3n3ccc4cc(OC(=O)CCCCCN)c(OC)cc4c23)ccc1OC(=O)CCCCCN [Compound 169] | 0.068 | 10.5 | 3.21 | 0.0646 | 9.74 | 1.14 | 0.0464 | 2.97 | 10.5 | 10.5 | 0.159 | 1.42 | 0.418 | 0.258 | 1050 | 0.922 | 0.0151 | 0.0373 | 0.0387 | 0.0471 | CC50 (SK-MEL-28; [3]): 10.5 µM; IC (TGI) (SK-MEL-28; [4]): 0.529 µM; CC50 (DU-145; [3]): 0.0105 µM; IC (TGI) (DU-145; [4]): 0.0901 µM; CC50 (LNCaP; [3]): 1.24 µM; IC (TGI) (LNCaP; [4]): 0.183 µM; CC50 (SK-BR-3; [3]): 10.5 µM; IC (TGI) (SK-BR-3; [4]): 0.132 µM; CC50 (IGROV; [3]): 10.5 µM; IC (TGI) (IGROV; [4]): 1.92 µM; GI50 (IGROV-ET): 0.0418 µM; CC50 (IGROV-ET; [3]): 10.5 µM; IC (TGI) (IGROV-ET; [4]): 0.301 µM; GI50 (PANC-1): 0.152 µM; CC50 (PANC-1): 10.5 µM; IC (TGI) (PANC-1): 10.5 µM; stimulation of DNA cleavage by topoisomerase I, concentration-dependent measurements compared with LAM-D (3) (human topoisomerase I; dose-response analysis): equally efficient to (3); stimulation of DNA cleavage by topoisomerase I / inhibition of topoisomerase I (nicked DNA band) in DNA relaxation assay (human topoisomerase I): inhibit topoisomerase I |
